Measured values as given in patent publication US10883088B2, “Biological upgrading of hydrocarbon streams with oxygenases” (priority 2017, dated 2021).

Experiments:
IsdG = biological target: T1, IsdG (Staphylococcus aureus, UniProt Q99UW8); experiment: UV-VIS Soret band screen of model porphyrins with IsdG; type: biochemical, S. aureus; conditions: porphyrin treated with IsdG; UV-VIS absorbance, room temperature; shift vs Control indicates protein-porphyrin interaction
T1 construct: Expression plasmids were constructed by inserting the gene for each oxygenase into the base vector pET28b; His-tag (N); made in house; host or cells: E. coli BL21-DE3(T1), pET28b
Excerpt: (§1) UV-VIS spectroscopy was used for initial screening of protein activity against numerous model compounds because each model porphyrin has a characteristic UV-VIS absorbance spectrum. A shift in the wavelength of maximal absorbance, commonly referred to as the “Soret band,” indicates a change in porphyrin conformation or a protein-porphyrin interaction.
(§2) To prepare crude protein, aliquots were thawed on ice and diluted 4-fold with protein assay buffer (PAB). To isolate purified oxygenases, protein aliquots were thawed on ice and proteins of interest were purified by HIS-tag-Ni-NTA column affinity followed by size exclusion chromatography with PD-10 desalting columns. Purified protein was eluted in PAB, collected in the first 2 mL PD-10 column flow-through fraction. Relative to the initial protein concentration, samples were diluted 4-fold to parallel crude protein samples.
(§3) Model porphyrin stocks were prepared in porphyrin phosphate buffer (PPB), stored at 4° C. in amber bottles to protect samples from light, and used or discarded within one month.
(§4) Amber tubes were used for all assays to protect samples from light. Crude and purified protein samples were combined with porphyrin substrates, to achieve final concentrations in Table 4, and total assay volumes were raised to 10 mL with Tris buffer. Absorbance of a 2.4 mL sample was measured in a 1 cm quartz cuvette, at room temperature, 1 nm resolution, and 0.7 sec. integration time on an Evolution201® UV-VIS spectrophotometer with Thermo INSIGHT® software. Samples were incubated for 24 hrs. at room temperature and 75 RPM and their final UV-VIS absorbance spectra was measured. An absorbance baseline was collected using Tris buffer at the beginning of each time point and ≤1% error was observed between technical replicates. Crude, empty pET28b vector (EV) strain lysate protein and PAB only controls were run in parallel with experimental samples (EXP) for each porphyrin.

PigA = biological target: T2, PigA (Pseudomonas aeruginosa, UniProt G3XCZ8); experiment: UV-VIS Soret band screen of model porphyrins with PigA; type: biochemical, P. aeruginosa; conditions: porphyrin treated with PigA; UV-VIS absorbance, room temperature; shift vs Control indicates protein-porphyrin interaction
T2 construct: Expression plasmids were constructed by inserting the gene for each oxygenase into the base vector pET28b; His-tag (N); made in house; host or cells: E. coli BL21-DE3(T1), pET28b
Excerpt: (§5) A shift in the wavelength of maximal absorbance, commonly referred to as the “Soret band,” indicates a change in porphyrin conformation or a protein-porphyrin interaction.
as §2, §3
as §4, with “measured.” for “measured. An absorbance baseline was collected using Tris buffer at the beginning of each time point and ≤1% error was observed between technical replicates. Crude, empty pET28b vector (EV) strain lysate protein and PAB only controls were run in parallel with experimental samples (EXP) for each porphyrin.”

ChuS = experiment: UV-VIS Soret band screen of model porphyrins with ChuS; type: biochemical, E. coli; conditions: porphyrin treated with ChuS; UV-VIS absorbance, room temperature; shift vs Control indicates protein-porphyrin interaction
Excerpt: as §1, §2, §3, §4

IsdI = biological target: T3, IsdI (Staphylococcus aureus, UniProt Q99X56); experiment: UV-VIS Soret band screen of model porphyrins with IsdI; type: biochemical, S. aureus; conditions: porphyrin treated with IsdI; UV-VIS absorbance, room temperature; shift vs Control indicates protein-porphyrin interaction
T3 construct: Expression plasmids were constructed by inserting the gene for each oxygenase into the base vector pET28b; His-tag (N); made in house; host or cells: E. coli BL21-DE3(T1), pET28b
Excerpt: as §1, §2, §3, §4

HmuO = experiment: UV-VIS Soret band screen of model porphyrins with HmuO; type: biochemical, C. jeikeium; conditions: porphyrin treated with HmuO; UV-VIS absorbance, room temperature; shift vs Control indicates protein-porphyrin interaction
Excerpt: as §5, §2, §3
as §4, with “measured.” for “measured. An absorbance baseline was collected using Tris buffer at the beginning of each time point and ≤1% error was observed between technical replicates. Crude, empty pET28b vector (EV) strain lysate protein and PAB only controls were run in parallel with experimental samples (EXP) for each porphyrin.”

HugZ = biological target: T4, HugZ (Helicobacter pylori, UniProt O25087); experiment: UV-VIS Soret band screen of model porphyrins with HugZ; type: biochemical, H. pylori; conditions: porphyrin treated with HugZ; UV-VIS absorbance, room temperature; shift vs Control indicates protein-porphyrin interaction
T4 construct: Expression plasmids were constructed by inserting the gene for each oxygenase into the base vector pET28b; His-tag (N); made in house; host or cells: E. coli BL21-DE3(T1), pET28b
Excerpt: as §1, §2, §3, §4

Molecule	Soret band wavelength (IsdG)	Soret band wavelength (PigA)	Soret band wavelength (ChuS)	Soret band wavelength (IsdI)	Soret band wavelength (HmuO)	Soret band wavelength (HugZ)
O=C(O)c1ccc(-c2c3nc(c(-c4ccc(C(=O)O)cc4)c4ccc([n-]4)c(-c4ccc(C(=O)O)cc4)c4nc(c(-c5ccc(C(=O)O)cc5)c5ccc2[n-]5)C=C4)C=C3)cc1.[Ni+2] [Ni(II)-meso-tetra-(4-carboxyphenyl) porphine]	400 nm	404 nm	410/405	400 nm	405 nm	400 nm
C[n+]1ccc(-c2c3nc(c(-c4cc[n+](C)cc4)c4ccc([n-]4)c(-c4cc[n+](C)cc4)c4nc(c(-c5cc[n+](C)cc5)c5ccc2[n-]5)C=C4)C=C3)cc1.[Cl-].[Cl-].[Cl-].[Cl-].[Ni+2] [Ni(II)-meso-tetra-(Nmethyl-4-pyridyl) porphine tetrachloride]			440 nm		440 nm	
C=CC1=C(C)c2cc3[n-]c(cc4[n-]c(cc5nc(cc1n2)C(C)=C5C=C)c(C)c4CCC(=O)[O-])c(CCC(=O)[O-])c3C.[H+].[H+].[Ni+2] [Ni(II)-protoporphyrin (IX)]	400 nm	400 nm	400 nm	400 nm	400 nm	417 nm
C[n+]1ccc(-c2c3nc(c(-c4cc[n+](C)cc4)c4ccc([n-]4)c(-c4cc[n+](C)cc4)c4nc(c(-c5cc[n+](C)cc5)c5ccc2[n-]5)C=C4)C=C3)cc1.[Cl-].[Cl-].[Cl-].[Cl-].[O]=[V+2] [VO-meso-tetra-(N-methyl-4-pyridyl), VO-meso-tetra-(N-methyl-4-pyridyl) porphine tetrachloride]			422 nm		422 nm	
Fe(III)-meso-tetra-(4-carboxyphenyl) porphine chloride	410 nm	414 nm	424/420	410 nm	417 nm	418 nm
hemin	390 nm	400 nm	405/400	390 nm	399 nm	405 nm
